Patent publication US11925629B2, “Heterocyclic inhibitors of ERK1 and ERK2 and their use in the treatment of cancer” (Asana Biosciences, LLC, priority 2015, dated 2024)
Where two headings read alike, the source gives them in different places.

Tests used:
ERK1 = molecular target: T1, ERK1 (Homo sapiens, UniProt P27361); experiment: ERK1 HTRF (biochemical) assay
T1 construct: purchased Jubilant Biosys
Description: (§1) ERK1 and ERK2 HTRF (Biochemical) Assays
These assays employed a homogeneous time resolved fluorescence (HTRF) technique. […] The plate was incubated at room temperature for 60 min with shaking. […] The IC50 values (half maximal inhibitory concentration values) were subsequently determined using a sigmoidal dose-response curve (variable slope) in GraphPad Prism® 5 software.

ERK2 = molecular target: T2, ERK2 (Homo sapiens, UniProt P28482); experiment: ERK2 HTRF (biochemical) assay
T2 construct: purchased Jubilant Biosys
T2 sequence (P28482 whole entry): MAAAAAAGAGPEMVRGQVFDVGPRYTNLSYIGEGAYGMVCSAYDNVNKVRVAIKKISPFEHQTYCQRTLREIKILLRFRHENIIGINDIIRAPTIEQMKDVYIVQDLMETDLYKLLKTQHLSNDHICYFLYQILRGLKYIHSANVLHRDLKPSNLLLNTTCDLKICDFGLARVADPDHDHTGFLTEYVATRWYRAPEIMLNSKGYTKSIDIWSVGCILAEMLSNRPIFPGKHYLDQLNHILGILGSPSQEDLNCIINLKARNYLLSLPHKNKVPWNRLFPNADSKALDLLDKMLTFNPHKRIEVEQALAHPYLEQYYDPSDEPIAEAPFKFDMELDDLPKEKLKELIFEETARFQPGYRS
Description: as §1
These assays employed a homogeneous time resolved fluorescence (HTRF) technique. The compounds were serially diluted by half-log with concentrations ranging from 0.0005 to 10 uM in the assay buffer (50 mM Tris pH=7.5, 1 mM EGTA, 2 mM DTT, 10 mM MgCl2, 0.100 Tween-20) and 20 uL of substrate-ATP mix [1 uM Biotin-LC-Myelin Basic Protein (MBP) derivatized Peptide (Anaspec)-24 uM ATP (Sigma)] was added to each well of the assay plate. Then 10 uL of enzyme mix [25 nM ERK1 or ERK2 (Jubilant Biosys) in assay buffer] was added to each well. The plate was incubated at room temperature for 60 min with shaking. The HTRF mix [625 nM LANCER Ultra Europium-anti-phospho-MBP (Perkin Elmer) and 2 nM Phycolink® Streptavidin-Allophycocyanin (SA-APC) (Prozyme) in HTRF buffer (50 mM Tris-HCl pH=7.5, 100 mM NaCl, 0.1% BSA, 0.05% Tween20, 0.5 mM EDTA)] was prepared and 75 uL of this mix was added to the HTRF plate. After incubation for 60 min at room temperature, 10 uL of the reaction mixture was transferred to the HTRF assay plate and incubated for 45 min at room temperature with shaking. Plate was read using Pherastar in HTRF mode (excitation 337 nm, emission 665 & 620 nm). The IC50 values (half maximal inhibitory concentration values) were subsequently determined using a sigmoidal dose-response curve (variable slope) in GraphPad Prism® 5 software.

[1] = tested on: HT-29 (colorectal carcinoma, B-RafV600E) cells; experiment: Cell proliferation (Alamar Blue) assay, HT-29; format: cell-based, human; conditions: Homo sapiens, HT-29, HT29 cells
Summary of the method: (§2)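 5000 cells/well, 16-24 h attach; cpd 0.0005-10 uM (3-fold dilns) x 72 h, 37° C./5% CO2; Alamar Blue 1× 1-3 h; fluor 540/590 nm; IC50, variable-slope sigmoid.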

[2] = tested on: HCT116 (colorectal carcinoma, K Ras G13D) cells; experiment: Cell proliferation (Alamar Blue) assay, HCT116; format: cell-based, human
Summary of the method: as §2

[3] = tested on: phosphorylation of RSK1(S380) (the downstream target of ERK1/2); experiment: Phospho-RSK1(S380) ELISA assay in HT-29 cells; format: cell-based, human; conditions: read-out: Mechanistic Cell Assay RSK1 Phos HT29 IC50
Summary of the method: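 HT-29 colorectal carcinoma cells (B-RafV600E), plated overnight at 37° C./5% CO2, were treated with compound dilutions for 2 h. Lysates were analysed by phospho-RSK1(Ser380) sandwich ELISA with absorbance at 450 nm. IC50 came from a sigmoidal variable-slope dose-response fit.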

[4] = Homo sapiens, HCT-116, HCT116 cells
[5] = Homo sapiens, HT-29, HT29 cells, phospho-RSK1(S380)
[6] = Homo sapiens, HT-29, HT29 cells

T1 sequence (P27361 whole entry): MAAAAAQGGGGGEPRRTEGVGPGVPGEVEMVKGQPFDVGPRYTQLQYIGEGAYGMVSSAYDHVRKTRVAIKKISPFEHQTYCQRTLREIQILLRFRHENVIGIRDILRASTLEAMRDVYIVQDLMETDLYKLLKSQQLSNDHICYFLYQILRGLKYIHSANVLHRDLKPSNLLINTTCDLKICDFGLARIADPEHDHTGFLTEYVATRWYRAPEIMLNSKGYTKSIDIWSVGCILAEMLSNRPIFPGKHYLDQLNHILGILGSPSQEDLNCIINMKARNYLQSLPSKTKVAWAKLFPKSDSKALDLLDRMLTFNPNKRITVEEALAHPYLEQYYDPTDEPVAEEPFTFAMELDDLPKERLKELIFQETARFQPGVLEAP

IC50 (ERK1; HTRF biochemical assay) [nM]	IC50 (ERK2; HTRF biochemical assay) [nM]	IC50 [1] [nM]	IC50 [2, 4] [nM]	IC50 [3, 5] [nM]	IC50 (ERK1; HTRF) [nM]	IC50 (ERK2; HTRF) [nM]	IC50 [3, 6] [nM]	IC50 ([2]; HCT116 cells) [nM]	IC50 ([3]; HT29 cells, phospho-RSK1(S380)) [nM]	Compound
–	–	> 2500	> 2500	–	< 50	≤ 50	500 to 2500	–	–	Cc1cnc(N[C@H]2CCOC2)nc1-n1cnc(C(=O)NCc2cccc(Cl)c2Cl)c1 [Example 319, (S)-N-(2,3-dichlorobenzyl)-1-(5-methyl-2-((tetrahydrofuran-3-yl)amino)pyrimidin-4-yl)-1H-imidazole-4-carboxamide]
–	–	> 2500	> 2500	–	50 to 100	≤ 50	500 to 2500	–	–	Cc1cnc(N[C@H]2CCOC2)nc1-n1cnc(C(=O)NCc2ccc(C(F)(F)F)c(F)c2)c1 [Example 321, (S)-N-(3-fluoro-4-(trifluoromethyl)benzyl)-1-(5-methyl-2-((tetrahydrofuran-3-yl)amino)pyrimidin-4-yl)-1H-imidazole-4-carboxamide]
–	–	> 2500	> 2500	–	500 to 2500	500 to 2500	> 2500	–	–	Cc1cnc(N[C@H]2CCOC2)nc1-n1cnc(C(=O)NCc2c(Cl)cccc2C(F)(F)F)c1 [Example 322, (S)-N-(2-chloro-6-(trifluoromethyl)benzyl)-1-(5-methyl-2-((tetrahydrofuran-3-yl)amino)pyrimidin-4-yl)-1H-imidazole-4-carboxamide]
–	–	> 2500	> 2500	–	< 50	≤ 50	250 to 500	–	–	Cc1cccc(CNC(=O)c2cn(-c3nc(N[C@H]4CCOC4)ncc3C)cn2)c1 [Example 323, (S)-1-(5-methyl-2-((tetrahydrofuran-3-yl)amino)pyrimidin-4-yl)-N-(3-methylbenzyl)-1H-imidazole-4-carboxamide]
–	–	–	–	–	50 to 100	≤ 50	–	–	–	CCC(=O)OCc1c(Cl)cccc1CNC(=O)c1cn(-c2nc(N[C@H]3CCOC3)ncc2C)cn1 [Example 346, (S)-2-chloro-6-((1-(5-methyl-2-((tetrahydrofuran-3-yl)amino)pyrimidin-4-yl)-1H-imidazole-4-carboxamido)-methyl)benzyl-propionate]
–	–	–	–	–	100 to 500	50 to 100	–	–	–	Cc1cnc(N[C@H]2CCOC2)nc1-n1cnc(C(=O)NC(C)(C)c2cccc(Cl)c2CO)c1 [Example 347, (S)-N-(2-(3-chloro-2-(hydroxymethyl)-phenyl)propan-2-yl)-1-(5-methyl-2-((tetrahydrofuran-3-yl)amino)pyrimidin-4-yl)-1H-imidazole-4-carboxamide]

Continued, compound first:

Compound	IC50 (ERK1; HTRF biochemical assay) [nM]	IC50 (ERK2; HTRF biochemical assay) [nM]	IC50 [1] [nM]	IC50 [2, 4] [nM]	IC50 [3, 5] [nM]	IC50 (ERK1; HTRF) [nM]	IC50 (ERK2; HTRF) [nM]	IC50 [3, 6] [nM]	IC50 ([2]; HCT116 cells) [nM]	IC50 ([3]; HT29 cells, phospho-RSK1(S380)) [nM]
Cc1cnc(NC2CC(F)(F)C2)nc1-n1cnc(C(=O)N[C@H](CN)c2cccc(Cl)c2)c1 [Compound #259, (S)—N-(2-Amino-1-(3-chlorophenyl)ethyl)-1-(2-((3,3-difluorocyclobutyl)amino)-5-methylpyrimidin-4-yl)-1H-imidazole-4-carboxamide]	< 50	≤ 50	100 to 250	≤ 100	100 to 250	–	–	–	–	–
Cc1cnc(NC2CCOCC2)nc1-n1cnc(C(=O)N[C@H](CN)c2cc(F)cc(Cl)c2)c1 [Compound #275, (S)—N-(2-Amino-1-(3-chloro-5-fluorophenyl)ethyl)-1-(5-methyl-2-((tetrahydro-2H-pyran-4-yl)amino)pyrimidin-4-yl)-1H-imidazole-4-carboxamide]	< 50	≤ 50	≤ 100	≤ 100	≤ 100	–	–	–	–	–
Cc1cnc(NC2CCOCC2)nc1-n1cnc(C(=O)NCc2cc(F)cc(Cl)c2CO)c1 [Compound #297, N-(3-Chloro-5-fluoro-2-(hydroxymethyl)benzyl)-1-(5-methyl-2-((tetrahydro-2H-pyran-4-yl)amino)pyrimidin-4-yl)-1H-imidazole-4-carboxamide]	< 50	≤ 50	≤ 100	100 to 250	250 to 500	–	–	–	–	–
Cc1cnc(Nc2ccc3c(c2)OC(F)(F)O3)cc1-n1cnc(C(=O)NC(CO)c2ccccc2)c1 (stereo not drawn) [Example 86, 1-(2-((2,2-difluoro-benzo[d][1,3]dioxol-5-yl)-amino)-5-methyl-pyridin-4-yl)-N-(2-hydroxy-1-phenyl-ethyl)-1H-imidazole-4-carboxamide]	50 to 100	50 to 100	> 2500	> 2500	–	–	–	–	–	–
Cc1cnc(Nc2ccccn2)cc1-n1ccc(C(=O)NC(CO)c2ccccc2)c1 (stereo not drawn) [Example 149, N-(2-hydroxy-1-phenylethyl)-1-(5-methyl-2-(pyridin-2-ylamino)pyridin-4-yl)-1H-pyrrole-3-carboxamide]	50 to 100	≤ 50	> 2500	> 2500	> 2500	–	–	–	–	–
Cc1cnc(NC2CCOCC2)nc1-n1cnc(C(=O)NC(CN)c2cc(F)cc(Cl)c2)c1 (stereo not drawn) [Example 236, N-(2-amino-1-(3-chloro-5-fluorophenyl)ethyl)-1-(5-methyl-2-((tetrahydro-2H-pyran-4-yl)amino)pyrimidin-4-yl)-1H-imidazole-4-carboxamide]	< 50	≤ 50	≤ 100	≤ 100	≤ 100	–	–	–	–	–
Cc1cccc(CNC(=O)c2cn(-c3nc(NC4CCOCC4)ncc3C)cn2)n1 [Example 279, 1-(5-methyl-2-((tetrahydro-2H-pyran-4-yl)amino)pyrimidin-4-yl)-N-((6-methylpyridin-2-yl)methyl)-1H-imidazole-4-carboxamide]	< 50	≤ 50	–	500 to 2500	100 to 250	–	–	–	–	–
Cc1cnc(N[C@H]2CCOC2)nc1-n1cnc(C(=O)NC(CN)c2cc(F)cc(Cl)c2)c1 (stereo partly drawn) [Example 282, N-(2-amino-1-(3-chloro-5-fluorophenyl)ethyl)-1-(5-methyl-2-(((S)-tetrahydrofuran-3-yl)amino)pyrimidin-4-yl)-1H-imidazole-4-carboxamide]	< 50	≤ 50	≤ 100	≤ 100	≤ 100	–	–	–	–	–
Cc1cnc(N[C@H]2CCOC2)nc1-n1cnc(C(=O)NCc2cccc(Cl)c2F)c1 [Example 315, (S)-N-(3-chloro-2-fluorobenzyl)-1-(5-methyl-2-((tetrahydrofuran-3-yl)amino)pyrimidin-4-yl)-1H-imidazole-4-carboxamide]	–	–	> 2500	> 2500	–	< 50	≤ 50	> 2500	–	–
Cc1cnc(N[C@H]2CCOC2)nc1-n1cnc(C(=O)NCc2c(F)cccc2F)c1 [Example 316, (S)-N-(2,6-difluorobenzyl)-1-(5-methyl-2-((tetrahydrofuran-3-yl)amino)pyrimidin-4-yl)-1H-imidazole-4-carboxamide]	–	–	> 2500	> 2500	–	500 to 2500	100 to 500	> 2500	–	–
Cc1cnc(N[C@H]2CCOC2)nc1-n1cnc(C(=O)NCc2cccc(C(F)(F)F)c2Cl)c1 [Example 317, (S)-N-(2-chloro-3-(trifluoromethyl)benzyl)-1-(5-methyl-2-((tetrahydrofuran-3-yl)amino)pyrimidin-4-yl)-1H-imidazole-4-carboxamide]	–	–	> 2500	> 2500	–	50 to 100	≤ 50	> 2500	–	–
N-(1-(3-chlorophenyl)-2-hydroxypropyl)-1-(5-methyl-2-((tetrahydro-2H-pyran-4-yl)amino)pyrimidin-4-yl)-1H-imidazole-4-carboxamide (isomer #1) [Example 253]	< 50	≤ 50	–	–	–	–	–	–	> 2500	500 to 2500
